# Data as given in patent publication US12577201B2, “Glutamine analogs” (Jacobio Pharmaceuticals Co., Ltd., priority 2020, dated 2026).
# Experiment: Body weight of C57BL/6 mice bearing MC38 tumors (Example 11)
# Type: in vivo, Mus musculus
# Details: C57BL/6, MC38, 2 μmol/kg S.C. QD
# Experimental: The treatments were started when the mean tumor size reached 82-129 mm^3 (average tumor size 102 mm^3). Each group contained 6 tumor bearing mice. Group 1 was treated with Vehicle (10% DMSO+90% Saline), S.C., QD. Group 2 was given treatments with compound 2 at 2 μmol/kg, S.C., QD. Group 3 was given treatments with compound 81 at 2 μmol/kg, S.C., QD. Group 4 was given treatments with compound 443 at 2 μmol/kg, S.C., QD. Group 5 was given treatments with compound 459 at 2 μmol/kg, S.C., QD. Group 6 was given treatments with compound 3 at 2 μmol/kg, S.C., QD.
# In vivo efficacy was examined according to absolute tumor growth inhibition (TGI) and the safety was evaluated according to weight change and survival in mice.
smiles,measurement,setting,value
"CO[C@@H](C)C(=O)N[C@@H](CCC(=O)C=[N+]=[N-])C(=O)OC(C)C [Compound 2, isopropyl (S)-6-diazo-2-((S)-2-methoxypropanamido)-5-oxohexanoate]",BW(g) (Mean ± SEM) Beginning (D6),D6,19.8 ± 0.2 g
same,BW Change (%),D6 to D20,+6.4%
same,BW(g) (Mean ± SEM) End (D20),D20,21.1 ± 0.3 g
